Measurements as given in ChEMBL document CHEMBL1152581, “Delta-di-carboxybutyl phosphoramidate of 2'-deoxycytidine-5'-monophosphate as substrate for DNA polymerization by HIV-1 reverse transcriptase” (Bioorg Med Chem, 2009).
The source made the active and inactive calls. The calls are words filed in the database; no cut-off is given here.

Experiments:
[1] = target: Human immunodeficiency virus type 1 reverse transcriptase (Human immunodeficiency virus 1) (UniProt Q72547); test: Activity at HIV1 reverse transcriptase assessed as elongation of DNA primer up to 120 mins at 1 mM by single nucleotide incorporation assay
[2] = target: Human immunodeficiency virus type 1 reverse transcriptase (Human immunodeficiency virus 1) (UniProt Q72547); test: Activity at HIV1 reverse transcriptase assessed as elongation of DNA primer up to 120 mins at 500 uM by single nucleotide incorporation assay
[3] = target: Human immunodeficiency virus type 1 reverse transcriptase (Human immunodeficiency virus 1) (UniProt Q72547); test: Activity at HIV1 reverse transcriptase assessed as elongation of DNA primer after 60 mins at 500 uM by single nucleotide incorporation assay
[4] = target: Human immunodeficiency virus type 1 reverse transcriptase (Human immunodeficiency virus 1) (UniProt Q72547); test: Activity at HIV1 reverse transcriptase assessed as elongation of DNA primer after 60 mins by single nucleotide incorporation assay

What does the source list for `Nc1ccn([C@H]2C[C@H](O)[C@@H](COP(=O)(O)NCCCC(C(=O)O)C(=O)O)O2)c(=O)n1`?
Activity [1]: 60%; Activity [2]: 60%; Activity [3]: 54%

For `Nc1ccn([C@@H]2O[C@H](COP(=O)(O)NCCCC(C(=O)O)C(=O)O)C[C@H]2O)c(=O)n1`, which Activity [4] is on record?
The Activity was “inactive”.

For `Nc1ncnc2c1ncn2[C@H]1C[C@H](O)[C@@H](COP(=O)(O)N[C@@H](CC(=O)O)C(=O)O)O1`, which Activity [3] is on record?
Its Activity is 82%.
